Data: US5599808A, “Aqueous indolocarbazole solutions” (Cephalon, Inc., priority 1995, dated 1997)
≈ marks a conversion by molar mass, not a printed value.

Legend:
[1] = tested on: protein kinase; conditions: Berg et al. J. Biol. Chem. 267:13-16 (1992); cited from earlier work
[2] = Concentration of dissolved indolocarbazole obtained in aqueous solutions (HPLC); conditions: organic solvent or mixture
Procedure: In general, a solution of the concentrate can be prepared by combining a dispersant such as polyvinylpyrrolidone C-30 and a selected organic solvent such as propylene glycol into a beaker. The mixture is continuously stirred until completely dissolved. Solid PVP or other solution components may take 1-2 hours to dissolve completely at room temperature.
An amount of an indolocarbazole, for example, staurosporine, K-252a, or any one of indolocarbazole A, B, or C (Table 1) can each be individually weighed and added to a small aliquot of the aqueous solution, resulting in a 10 mg/ml solution after the indolocarbazole completely dissolves. Alternatively, a mixture of indolocarbazoles may be combined, weighed, and added to a small aliquot of the aqueous solution resulting in a 10 mg/ml solution after the indolocarbazole completely dissolves. An indolocarbazole solution can be stirred or shaken vigorously overnight. Any undissolved indolocarbazole is removed by standard centrifugation or filtration techniques. The concentration of solubilized indolocarbazole can be determined by reversed phase HPLC using a UV detector (290 nm).
The following HPLC conditions are used to determine the concentration of an indolocarbazole:
HPLC Column: Zorbax Rx C-18 4.6×250 mm, 5 micron particle size
Prior to injection of an indolocarbazole solution, there is allowed a 10 minute equilibration time.
Fifty g of PEG-400 were added to 50 ml of water and the mixture vigorously stirred until completely dissolved. One mg of either K-252a, staurosporine or the indolocarbazoles B or C (see Table 1) were added individually to a 100 μl aliquot of the PEG-400 solution and the resulting mixture was shaken overnight. The solution was clarified by centrifugation at 1000 rpm for 10 minutes. The supernatant was saved and any residue discarded. Ten μl of the supernatant was removed, diluted with DMSO (100:1) and the concentration of dissolved K-252a determined by HPLC.
Same as example 1 except that PEG-600 was used instead of PEG-400.
Same as example 1 except that PEG-1000 was used instead of PEG-400.
Same as example 1 except that 48 ml of water was used and 2 g of benzyl alcohol was added to the PEG-400 solution.
Same as example 2 except that 48 ml of water was used and 2 g of benzyl alcohol was added to the PEG-600 solution.
Same as example 3 except that 48 ml of water was used and 2 g of benzyl alcohol was added to the PEG-1000 solution.
2.5 g of benzyl alcohol was added to 47.5 g of PEG-400 and, in a separate container, 2.5 g of Pluronic F68 was added to 47.5 ml of water. Each solution was stirred until completely dissolved, then each solution was combined and stirred until homogeneous. One mg of K-252a was added to 100 μl of the solution and the resulting mixture was shaken overnight. The solution was clarified by centrifugation at 1000 rpm for 10 minutes. Ten (10) μl of supernatant was removed, diluted with DMSO (100:1), and the concentration of dissolved K-252a determined by HPLC.
Same as example 7 except that Pluronic™ L61 was used instead of Pluronic™ F68.
Same as example 7 except that Pluronic™ L64 was used instead of Pluronic™ F68.
Same as example 7 except that Tween™ 20 was used instead of Pluronic™ F68.
Same as example 7 except that Tween™ 80 was used instead of Pluronic™ F68.
Same as example 7 except that PVP was used instead of Pluronic™ F68 and PEG-300 was used instead of PEG-400.
Same as example 12 except that PEG-400 was used instead of PEG-300 and indolocarbazoles A, B or C were each solubilized individually in addition to K-252a.
Same as example 12 except that PEG-600 was used instead of PEG-300 and indolocarbazoles A, B or C were each solubilized individually in addition to K-252
Same as example 12 except that PEG-1000 was used instead of PEG-300.
Ten (10) g of Triton X-100 was added to 38 ml of water and the mixture was stirred thoroughly.

[3] = cited from earlier work

**Q.** For COC(=O)C1(O)CC2OC1(C)n1c3ccccc3c3c4c(c5c6ccccc6n2c5c31)C(=O)NC4 (centres unmarked) [Compound K-252a], which “modulation of neurotrophin responses by affecting protein kinase activity” value [1] is on record?
**A.** Its value is “modulate neurotrophin responses”.

**Q.** And the solubility thermodynamic ([2]; 50% peg 400, 50% h2o, Concentration Obtained, Example 1: 50% PEG 400, 50% H2O, target 10 mg/ml)?
**A.** Its solubility thermodynamic is 1390 µg/mL (≈ 2.97 mM).

**Q.** What about the solubility thermodynamic ([2]; 50% peg 600, 50% h2o, Concentration Obtained, Example 2: 50% PEG 600, 50% H2O, target 10 mg/ml) of the same molecule?
**A.** Its solubility thermodynamic is 1920 µg/mL (≈ 4.11 mM).

**Q.** What about the solubility thermodynamic ([2]; 50% peg 1000, 50% h2o, Concentration Obtained, Example 3: 50% PEG 1000, 50% H2O, target 10 mg/ml) of the same molecule?
**A.** Its solubility thermodynamic is 1820 µg/mL (≈ 3.89 mM).

**Q.** And the solubility thermodynamic ([2]; peg 300/ba/pvp/h2o, Concentration Obtained, Example 12: 47.5% PEG 300, 2.5% BA, 2.5% PVP, 47.5% H2O, target 10 mg/ml)?
**A.** Its solubility thermodynamic is 9600 µg/mL (≈ 20.5 mM).

**Q.** What about the solubility thermodynamic ([2]; peg 400/ba/h2o, Concentration Obtained, Example 4: 50% PEG 400, 2% BA, 48% H2O, target 10 mg/ml) of the same molecule?
**A.** Its solubility thermodynamic is 2080 µg/mL (≈ 4.45 mM).

**Q.** What about the solubility thermodynamic ([2]; peg 400/ba/pluronic f68/h2o, Concentration Obtained, Example 7: 47.5% PEG 400, 2.5% BA, 2.5% Pluronic F68, 47.5% H2O, target 10 mg/ml) of the same molecule?
**A.** Its solubility thermodynamic is 5500 µg/mL (≈ 11.8 mM).

**Q.** What about the solubility thermodynamic ([2]; peg 400/ba/pluronic l61/h2o, Concentration Obtained, Example 8: 47.5% PEG 400, 2.5% BA, 2.5% Pluronic L61, 47.5% H2O, target 10 mg/ml) of the same molecule?
**A.** The solubility thermodynamic was 3500 µg/mL (≈ 7.49 mM).

**Q.** What about the solubility thermodynamic ([2]; peg 400/ba/pluronic l64/h2o, Concentration Obtained, Example 9: 47.5% PEG 400, 2.5% BA, 2.5% Pluronic L64, 47.5% H2O, target 10 mg/ml) of the same molecule?
**A.** The solubility thermodynamic was 1800 µg/mL (≈ 3.85 mM).

**Q.** What about the solubility thermodynamic ([2]; peg 400/ba/pvp/h2o, Concentration Obtained, Example 13: 47.5% PEG 400, 2.5% BA, 2.5% PVP, 47.5% H2O, target 10 mg/ml) of the same molecule?
**A.** The solubility thermodynamic was 10000 µg/mL (≈ 21.4 mM).

**Q.** And the solubility thermodynamic ([2]; peg 400/ba/tween 20/h2o, Concentration Obtained, Example 10: 47.5% PEG 400, 2.5% BA, 2.5% Tween 20, 47.5% H2O, target 10 mg/ml)?
**A.** The solubility thermodynamic was 6000 µg/mL (≈ 12.8 mM).

**Q.** What about the solubility thermodynamic ([2]; peg 400/ba/tween 80/h2o, Concentration Obtained, Example 11: 47.5% PEG 400, 2.5% BA, 2.5% Tween 80, 47.5% H2O, target 10 mg/ml) of the same molecule?
**A.** The solubility thermodynamic was 3700 µg/mL (≈ 7.91 mM).

**Q.** What about the solubility thermodynamic ([2]; peg 600/ba/h2o, Concentration Obtained, Example 5: 50% PEG 600, 2% BA, 48% H2O, target 10 mg/ml) of the same molecule?
**A.** Its solubility thermodynamic is 2720 µg/mL (≈ 5.82 mM).

**Q.** What about the solubility thermodynamic ([2]; peg 600/ba/pvp/h2o, Concentration Obtained (saturation level), Example 20: 47.5% PEG 600, 2.5% BA, 2.5% PVP, 47.5% H2O, 10 mg added) of the same molecule?
**A.** Its solubility thermodynamic is 10000 µg/mL (≈ 21.4 mM).

**Q.** And the solubility thermodynamic ([2]; peg 600/ba/pvp/h2o, Concentration Obtained (saturation level), Example 22: 50% PEG 600, 2% BA, 10% PVP, 38% H2O, 10 mg added)?
**A.** Its solubility thermodynamic is 21200 µg/mL (≈ 45.3 mM).

**Q.** What about the solubility thermodynamic ([2]; peg 600/ba/pvp/h2o, Concentration Obtained, Example 14: 47.5% PEG 600, 2.5% BA, 2.5% PVP, 47.5% H2O, target 10 mg/ml) of the same molecule?
**A.** Its solubility thermodynamic is 10000 µg/mL (≈ 21.4 mM).

**Q.** And the solubility thermodynamic ([2]; peg 600/ba/pvp/h2o, Concentration Obtained, Example 18: 50% PEG 600, 2% BA, 10% PVP, 38% H2O, target 10 mg/ml)?
**A.** Its solubility thermodynamic is 10000 µg/mL (≈ 21.4 mM).

**Q.** And the solubility thermodynamic ([2]; peg 600/ba/triton x-100/h2o, Concentration Obtained, Example 16: 50% PEG 600, 2% BA, 10% Triton X-100, 38% H2O, target 10 mg/ml)?
**A.** The solubility thermodynamic was 10000 µg/mL (≈ 21.4 mM).

**Q.** What about the solubility thermodynamic ([2]; peg 600/ba/tween 80/h2o, Concentration Obtained, Example 17: 50% PEG 600, 2% BA, 10% Tween 80, 38% H2O, target 10 mg/ml) of the same molecule?
**A.** The solubility thermodynamic was 8830 µg/mL (≈ 18.9 mM).

**Q.** And the solubility thermodynamic ([2]; peg 1000/ba/h2o, Concentration Obtained, Example 6: 50% PEG 1000, 2% BA, 48% H2O, target 10 mg/ml)?
**A.** The solubility thermodynamic was 1830 µg/mL (≈ 3.91 mM).

**Q.** And the solubility thermodynamic ([2]; peg 1000/ba/pvp/h2o, Concentration Obtained (saturation level), Example 21: 47.5% PEG 1000, 2.5% BA, 2.5% PVP, 47.5% H2O, 10 mg added)?
**A.** The solubility thermodynamic was 14100 µg/mL (≈ 30.2 mM).

**Q.** What about the solubility thermodynamic ([2]; peg 1000/ba/pvp/h2o, Concentration Obtained, Example 15: 47.5% PEG 1000, 2.5% BA, 2.5% PVP, 47.5% H2O, target 10 mg/ml) of the same molecule?
**A.** Its solubility thermodynamic is 10000 µg/mL (≈ 21.4 mM).

**Q.** And the solubility thermodynamic ([2]; peg 1000/ba/pvp/h2o, Concentration Obtained, Example 19: 40% PEG 1000, 2% BA, 10% PVP, 48% H2O, target 10 mg/ml)?
**A.** The solubility thermodynamic was 10000 µg/mL (≈ 21.4 mM).

**Q.** And the insolubility in water ([3]; Nakanishi et al.)?
**A.** Its insolubility in water is “insolubility”.

**Q.** What about the “solubility in non-aqueous, toxic solvents” value ([3]; non-aqueous, toxic solvents) of the same molecule?
**A.** Its value is “soluble in non-aqueous, toxic solvents”.

**Q.** What about the solubility in water ([3]; water) of the same molecule?
**A.** Its solubility in water is “insoluble in water”.
